According to US20160304556A1, “[…] ACTIVE COMPOUNDS AND THEIR METHODS OF USE” (AGIOS PHARMACEUTICALS, INC, priority 2012, published 2016):

What was measured:
IDH1 R132H = IDH1 R132H (Homo sapiens, UniProt O75874, R132H); assay: In vitro NADPH depletion assay for IDH1m R132H inhibitors; format: biochemical; conditions: enzyme, diaphorase/resazurin readout, read-out: IDH R132H IC50
Protocol: A test compound is prepared as 10 mM stock in DMSO and diluted to 50× final concentration in DMSO, for a 50 μl reaction mixture. IDH enzyme activity converting alpha-ketoglutarate to 2-hydroxyglutaric acid is measured using a NADPH depletion assay. In the assay the remaining cofactor is measured at the end of the reaction with the addition of a catalytic excess of diaphorase and resazurin, to generate a fluorescent signal in proportion to the amount of NADPH remaining. IDH1-R132 homodimer enzyme is diluted to […] in 40 μl of Assay Buffer(150 mM NaCl, 20 mM Tris-Cl pH 7.5, 10 mM MgCl2, 0.05% BSA, 2 mM b-mercaptoethanol); 1 μl of test compound dilution in DMSO is added and the mixture is incubated for 60 minutes at room temperature. The reaction is started with the addition of 10 μl of Substrate Mix ([…], 5 mM alpha-ketoglutarate, in Assay Buffer) and the mixture is incubated for 90 minutes at room temperature. The reaction is terminated with the addition of 25 μl of Detection Buffer (36 μg/ml diaphorase, […], in 1× Assay Buffer), and is incubated for 1 minute before reading on a SpectraMax platereader at Ex544/Em590.
Representative compounds of formula I set forth in Table 1 were tested in this assay and the results are set forth below in Table 3.

HT1080 cells = assay: Cellular assay, inhibition of 2-HG production (LC-MS) in HT1080 cells; format: cell-based; conditions: Homo sapiens, HT-1080, 48 hours, LC-MS of media
Protocol: Cells (HT1080 or U87MG) are grown in T125 flasks in DMEM containing 10% FBS, 1× penicillin/streptomycin and 500 ug/mL G418 (present in U87MG cells only). They are harvested by trypsin and seeded into 96 well white bottom plates at a density of 5000 cell/well in 100 μl/well in DMEM with 10% FBS. No cells are placed in columns 1 and 12. Cells are incubated overnight at 37° C. in 5% CO2. The next day test compounds are made up at 2× the final concentration and 100 μl are added to each cell well. The final concentration of DMSO is 0.2% and the DMSO control wells are plated in row G. The plates are then placed in the incubator for 48 hours. At 48 hours, 100 μl of media is removed from each well and analyzed by LC-MS for 2-HG concentrations. The cell plate is placed back in the incubator for another 24 hours. At 72 hours post compound addition, 10 mL/plate of Promega Cell Titer Glo reagent is thawed and mixed. The cell plate is removed from the incubator and allowed to equilibrate to room temperature. Then 100 μl of Promega Cell Titer Glo reagent is added to each well of media. The cell plate is then placed on an orbital shaker for 10 minutes and then allowed to sit at room temperature for 20 minutes. The plate is then read for luminescence with an integration time of 500 ms.
The IC50 for inhibition of 2-HG production (concentration of test compound to reduce 2HG production by 50% compared to control) in these two cell lines for various compounds of formula I is set forth in Table 2 above.

Sequence of IDH1 R132H (O75874 whole entry R132H): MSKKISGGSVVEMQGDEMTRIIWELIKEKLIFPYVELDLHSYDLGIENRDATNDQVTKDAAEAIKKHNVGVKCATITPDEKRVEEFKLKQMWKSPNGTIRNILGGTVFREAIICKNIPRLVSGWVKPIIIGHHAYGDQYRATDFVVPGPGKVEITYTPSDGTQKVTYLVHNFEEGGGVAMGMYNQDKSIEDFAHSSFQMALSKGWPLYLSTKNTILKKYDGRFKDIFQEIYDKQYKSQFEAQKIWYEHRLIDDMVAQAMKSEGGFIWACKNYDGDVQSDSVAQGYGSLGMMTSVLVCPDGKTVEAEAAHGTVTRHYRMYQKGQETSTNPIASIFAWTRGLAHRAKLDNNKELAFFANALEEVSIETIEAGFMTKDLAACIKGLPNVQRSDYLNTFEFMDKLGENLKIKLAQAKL

Compound | IC50 (IDH1 R132H) [nM] | IC50 (HT1080 cells) [nM]
CC(C)(C)OC(=O)N1CCC[C@H]1C(=O)N(c1cccc(F)c1)[C@H](C(=O)NC1CCC(F)(F)CC1)c1ccccc1Cl [Compound 44] | 500 to 1000 | –
O=C(NC1CCCCC1)C(c1ccccc1Cl)N(C(=O)c1cc2ccccc2[nH]1)c1cccc(F)c1 (centres unmarked) [Compound 20] | 500 to 1000 | –
O=C(NC1CCC(F)(F)CC1)C(c1ccccc1Cl)N(C(=O)c1cc2ccccc2[nH]1)c1cccc(F)c1 (centres unmarked) [Compound 34] | 500 to 1000 | –
Cc1ccccc1[C@@H](C(=O)NC1CCCCC1)N(C(=O)[C@H]1CCCN1)c1cccc(F)c1 [Compound 14] | 500 to 1000 | –
O=C(NC1CC(F)(F)C1)C(c1ccccc1Cl)N(C(=O)c1cccc2nccn12)c1cccc(F)c1 (centres unmarked) [Compound 40] | 500 to 1000 | –
O=C(NC1CC(F)(F)C1)C(c1ccccc1Cl)N(C(=O)CN1CCOC1=O)c1cccc(F)c1 (centres unmarked) [Compound 60, 2-(2-chlorophenyl)-N-(3,3-difluorocyclobutyl)-2-(N-(3-fluoro-phenyl)-2-(2-oxooxazolidin-3-yl)acetamido)acetamide] | 500 to 1000 | –
Cc1ccccc1C(C(=O)NC1CC(F)(F)C1)N(C(=O)Cn1ccnc1C)c1cccc(F)c1 (centres unmarked) [Compound 18] | 500 to 1000 | 1000 to 2000
CNC(=O)N1CCCC[C@@H]1C(=O)N(c1cccc(F)c1)[C@H](C(=O)NC1CCCCC1)c1ccccc1C [Compound 3] | 500 to 1000 | –
Cc1ccccc1C(C(=O)NC1CC(F)(F)C1)N(C(=O)CNc1cccnc1F)c1cccc(F)c1 (centres unmarked) [Compound 19] | – | 100 to 500
O=C(NC1CC(F)(F)C1)[C@H](c1ccccc1Cl)N(C(=O)C1CCN1c1ncccn1)c1cccc(F)c1 (some centres unmarked) [Compound 103] | – | 1000 to 2000
CC(C)(C)OC(=O)N1CCC[C@H]1C(=O)N(c1cccc(F)c1)[C@H](C(=O)NC1CC(F)(F)C1)c1ccccc1Cl [Compound 39] | 500 to 1000 | –
CNC(=O)N1CCC[C@@H]1C(=O)N(c1cccc(F)c1)[C@H](C(=O)NC1CCCCC1)c1ccccc1C [Compound 13] | 500 to 1000 | –
Cc1ccccc1C(C(=O)NC1CCCCC1)N(C(=O)CNC(=O)OC(C)(C)C)c1cccc(F)c1 (centres unmarked) [Compound 7] | 500 to 1000 | –
Cc1ccccc1C(C(=O)NC1CCC(F)(F)CC1)N(C(=O)CNc1cccnc1F)c1cccc(F)c1 (centres unmarked) [Compound 16] | – | 100 to 500
Cc1ccccc1C(C(=O)NC1CCCCC1)N(C(=O)CCNC(=O)OC(C)(C)C)c1cccc(F)c1 (centres unmarked) [Compound 8] | 500 to 1000 | –
O=C(NC1CCC(F)(F)CC1)C(c1ccccc1Cl)N(C(=O)Cn1cnc(Cl)c1Cl)c1ccc(F)c(F)c1 (centres unmarked) [Compound 38] | 100 to 500 | –
O=C(NC1CCCCC1)C(c1ccccc1Cl)N(C(=O)Cn1cnc(Cl)c1Cl)c1cccc(F)c1 (centres unmarked) [Compound 21] | – | 100 to 500
Cc1ccccc1[C@@H](C(=O)NC1CCCCC1)N(C(=O)[C@H]1CCCCN1C(=O)N(C)C)c1cccc(F)c1 [Compound 4] | 500 to 1000 | –
Cc1ccccc1[C@@H](C(=O)NC1CCCCC1)N(C(=O)[C@@H]1CCCN1S(C)(=O)=O)c1cccc(F)c1 [Compound 1] | 500 to 1000 | –

Next, values leading:

IC50 (IDH1 R132H) [nM] | IC50 (HT1080 cells) [nM] | Compound
≤ 100 | 500 to 1000 | COC(=O)N1C[C@@H](O)C[C@H]1C(=O)N(c1cccc(F)c1)[C@H](C(=O)NC1CC(F)(F)C1)c1ccccc1Cl [Compound 52]
100 to 500 | – | Cc1ccccc1C(C(=O)NC1CC2CC2C1)N(C(=O)CNc1cccnc1F)c1cccc(F)c1 (centres unmarked) [Compound 15]
100 to 500 | 500 to 1000 | COC(=O)N1CCC[C@H]1C(=O)N(c1cccc(S(N)(=O)=O)c1)[C@H](C(=O)NC1CCC(F)(F)CC1)c1ccccc1Cl [Compound 57]
≤ 100 | 100 to 500 | O=C(NC1CC(F)(F)C1)C(c1ccccc1Cl)N(C(=O)Cc1ccncc1)c1cccc(F)c1 (centres unmarked) [Compound 64]
100 to 500 | – | N#Cc1ccccc1C(C(=O)NC1CCCCC1)N(C(=O)Cn1cnc(Cl)c1Cl)c1cccc(F)c1 (centres unmarked) [Compound 28]
≤ 100 | 1000 to 2000 | COC(=O)N1C[C@@H](OC)C[C@H]1C(=O)N(c1cccc(F)c1)[C@H](C(=O)NC1CC(F)(F)C1)c1ccccc1Cl [Compound 63]
≤ 100 | 500 to 1000 | COC(=O)N1C[C@H](F)C[C@H]1C(=O)N(c1cccc(F)c1)[C@H](C(=O)NC1CC(F)(F)C1)c1ccccc1Cl [Compound 55, (2S,4R)-methyl 2-(((S)-1-(2-chlorophenyl)-2-((3,3-difluorocyclo-butyl)amino)-2-oxoethyl)(3-fluorophenyl)carbamoyl)-4-fluoropyrrolidine-1-carboxylate]
100 to 500 | 100 to 500 | O=C(NC1CCCCC1)C(c1ccccc1Cl)N(C(=O)C1Cc2ccccc2N1)c1cccc(F)c1 (centres unmarked) [Compound 32]
100 to 500 | 500 to 1000 | N#Cc1ncn(CC(=O)N(c2cccc(F)c2)C(C(=O)NC2CCCCC2)c2ccccc2Cl)c1C#N (centres unmarked) [Compound 22]
100 to 500 | 100 to 500 | Cc1ccccc1C(C(=O)NC1CC(F)(F)C1)N(C(=O)CNc1ncccc1F)c1cccc(F)c1 (centres unmarked) [Compound 17]
100 to 500 | – | CNS(=O)(=O)c1cccc(N(C(=O)[C@@H]2CCCN2C(=O)OC)[C@H](C(=O)NC2CC(F)(F)C2)c2ccccc2Cl)c1 [Compound 58]
≤ 100 | 500 to 1000 | COC(=O)N1C[C@H](O)C[C@H]1C(=O)N(c1cccc(F)c1)[C@H](C(=O)NC1CC(F)(F)C1)c1ccccc1Cl [Compound 51]
100 to 500 | 500 to 1000 | N#Cc1cccc(N(C(=O)Cn2cnc(Cl)c2Cl)C(C(=O)NC2CCCCC2)c2ccccc2Cl)c1 (centres unmarked) [Compound 27]
100 to 500 | 100 to 500 | N#Cc1ccnc(N2c3ccccc3C[C@H]2C(=O)N(c2cc(F)cc(F)c2)C(C(=O)NC2CC(F)(F)C2)c2ccccc2Cl)c1 (stereo partly drawn) [Compound 119, (2S)—N-(1-(2-chlorophenyl)-2-((3,3-difluorocyclobutyl)amino)-2-oxoethyl)-1-(4-cyanopyridin-2-yl)-N-(3,5-difluorophenyl)indoline-2-carboxamide]
100 to 500 | 1000 to 2000 | Cc1ccccc1[C@@H](C(=O)NC1CCCCC1)N(C(=O)[C@H]1CCCN1S(C)(=O)=O)c1cccc(F)c1 [Compound 2]
100 to 500 | – | Cc1nccn1CC(=O)N(c1cccc(F)c1)C(C(=O)NC1CC(F)(F)C1)c1ccccc1Cl (centres unmarked) [Compound 59]
100 to 500 | 100 to 500 | O=C(NC1CC(F)(F)C1)[C@H](c1ccccc1Cl)N(C(=O)[C@@H]1Cc2ccccc2N1)c1cc(F)cc(F)c1 (single isomer, unassigned) [Compound 118]
100 to 500 | 1000 to 2000 | CC(=O)N1CCC[C@H]1C(=O)N(c1cccc(F)c1)[C@H](C(=O)NC1CCCCC1)c1ccccc1C [Compound 9]
100 to 500 | – | CC(=O)N1CCC[C@@H]1C(=O)N(c1cccc(F)c1)[C@H](C(=O)NC1CCCCC1)c1ccccc1C [Compound 10]
100 to 500 | 1000 to 2000 | O=C(NC1CCC(F)(F)CC1)C(c1ccccc1Cl)N(C(=O)Cn1ccnn1)c1cccc(F)c1 (centres unmarked) [Compound 46]
≤ 100 | 100 to 500 | COC(=O)N1CCOC[C@H]1C(=O)N(c1cccc(F)c1)[C@H](C(=O)NC1CC(F)(F)C1)c1ccccc1Cl [Compound 53]
≤ 100 | 100 to 500 | O=C(NC1CCCCC1)C(c1ccccc1Cl)N(C(=O)Cn1cncn1)c1cccc(F)c1 (centres unmarked) [Compound 24]
≤ 100 | 100 to 500 | O=C(NC1CCC(F)(F)CC1)C(c1ccccc1Cl)N(C(=O)Cn1cnc(Cl)c1Cl)c1cccc(F)c1 (centres unmarked) [Compound 33]
100 to 500 | – | O=C(NC1CC(F)(F)C1)[C@@H](c1ccccc1Cl)N(C(=O)[C@@H]1Cc2ccccc2N1)c1cc(F)cc(F)c1 (single isomer, unassigned) [Compound 117]
100 to 500 | 1000 to 2000 | O=C(NC1CCC(F)(F)CC1)C(c1ccccc1Cl)N(C(=O)Cn1cncn1)c1cccc(F)c1 (centres unmarked) [Compound 45]
≤ 100 | 500 to 1000 | COC(=O)N1COC[C@H]1C(=O)N(c1cccc(F)c1)[C@H](C(=O)NC1CC(F)(F)C1)c1ccccc1Cl [Compound 54]
100 to 500 | – | O=C(NC1CCC(F)(F)CC1)C(c1ccccc1Cl)N(C(=O)Cn1cncn1)c1ccc(F)c(F)c1 (centres unmarked) [Compound 37]
100 to 500 | – | COC(=O)NCCC(=O)N(c1cccc(F)c1)C(C(=O)NC1CCCCC1)c1ccccc1C (centres unmarked) [Compound 12]
